# From patent US11953435B2, “Zinc-responsive fluorophores” (Northwestern University, priority 2019, dated 2024)
# Values joined by “and” are separate entries in the source; they are usually repeats but may differ in a detail not shown here. Identical values can stand only once.
# Legend:
# [1] = Photophysical properties in aqueous buffer (UV-visible, fluorescence, quantum yield, extinction coefficient); format: physicochemical; details: for λAbs (max) / λEm (max): aqueous buffer pH 7.2; for Extinction Coefficient (ε) / Quantum Yield (Φ): 50 nM to 250 nM probe; for fluorescence turn-on in the presence of zinc: aqueous buffered solutions; for turn-on ratio / increase in brightness in response to zinc: holo vs apo
# Procedure: (§1) Aqueous solutions were prepared by using de-ionized water with resistivity […], obtained using a Milli-Q water purification system. In order to properly compare the photophysical properties of ZincBY-2, ZincBY-3, and ZincBY-4 to ZincBY-1, the photophysical properties of ZincBY-1 we remeasured. […] Stock solutions of ZincBY-1, ZincBY-2, ZincBY-3, and ZincBY-4 were prepared at concentrations of 5 mM and stored at −20° C. in aliquots that were used immediately after thawing for each experiment. Unless otherwise stated, all spectroscopic methods were conducted in aqueous buffer containing 50 mM HEPES (pH 7.2) and 0.1 M KNO3. UV-visible spectra were acquired on a PerkinElmer Lambda 650 UV/Vis spectrophotometer using quartz cuvettes from Starna (1 cm path length, 10 cm path length used in extinction coefficient and quantum yield determination). Fluorescence spectra were acquired using a PerkinElmer LS 55 fluorescence spectrophotometer. For measurements containing zinc, 99.0% ZnNO3 hexahydrate (final concentration 5 μM) was used. For experiments analyzing apo probes, N,N,N′,N′-Tetrakis(2-pyridylmethyl)ethylenediamine (TPEN) (final concentration 5 μM) was added to solution. Quantum Yield and Extinction Coefficient Determination. Quantum yields for apo and holo ZincBY-1, ZincBY-2, ZincBY-3, and ZincBY-4 were determined by plotting absorbance vs. fluorescence intensity of solutions containing ZincBY-1, ZincBY-2, ZincBY-3, or ZincBY-4 at probe concentrations ranging from 50-250 nM. Serial dilution was used to make solutions at different concentrations. Fluorescein dissolved in 0.1 N NaOH was used as the quantum yield standard, using a literature-determined quantum yield of 0.95.^3 For all fluorophore solutions, fluorescence excitation was set at 490 nm and fluorescence emission was integrated from 510 nm to 650 nm. Zinc Dissociation Constant. Fluorescence spectra were recorded using zinc probes (ZincBY-1, ZincBY-2, ZincBY-3, or ZincBY-4; 200 nM) and ZnSO4 (various concentrations). The solutions were equilibrated in the dark for 1 h prior to measurement. The concentration of ZnSO4 was varied from 1 μM to 9 mM in buffer solution (50 mM HEPES and 0.1 M KNO3, and pH 7.2) containing 10 mM EGTA. Free Zn^2+ was calculated according to a previously reported method (Ref. B4; incorporated by reference in its entirety). Data was fit to the following one-site binding equation: F=(FminKd+Fmax[Zn^2+])/(Kd+[Zn^2+]) pH Response. The fluorescence spectra of zinc probes (ZincBY-2, ZincBY-3, or ZincBY-4; 200 nM) wasere measured at various pH values (4.5-11). The following buffers were used at 50 mM concentration with 0.1 M KNO3: NaOAc/AcOH (pH 4.0-4.5), MES (pH 5.0-6.5), HEPES (pH 7.0-8.0), CHES (pH 8.5-9.5), CAPS (pH 10.0-11.0). Metal Ion Response. The fluorescence spectra of zinc probes (ZincBY-2, ZincBY-3, or ZincBY-4; 200 nM) were measured in the presence an excess of metal ion including 1 mM KNO3, 1 mM NaNO3, 1 mM CaSO4, 1 mM MgSO4, 15 μM MnSO4, 15 μM (NH4)2Fe(SO4)2, 15 μM NH4Fe(SO4)2, 15 μM CoSO4, 15 μM NiSO4, 15 μM CuSO4, 15 μM [Cu(CH3CN)4]PF6, 15 μM CdSO4, 15 μM Hg(NO3)2, 15 μM Pb(NO3)2, or 15 μM ZnSO4. The fluorescence spectra were compared to that of ZincBY-2 (200 nM), ZincBY-3 (200 nM), or ZincBY-4 (200 nM) in the presence of 10 μM TPEN. Determination of octanol-water partition coefficients (log P). A log P value for each probe was determined by agitating nanomolar solutions of each probe in a 1:1 mixture of HEPES buffer and 1-octanol. Solutions were allowed to settle for 1 h and then the fluorescence intensity of each phase was measured. Standard curves of the fluorescence of known concentrations of probes in both solutions were used to determine concentrations.
# [2] = Zinc dissociation constant, fluorescence titration in buffered EGTA-zinc solution; format: binding; details: for Kd: 200 nM probe, 50 mM HEPES, 0.1 M KNO3, pH 7.2, 10 mM EGTA; for affinity for zinc (in words): compared to other probes
# Procedure: as §1
# [3] = pH response of fluorescence; format: physicochemical; details: for pH-dependent fluorescence changes: holo and apo forms, physiological pH range (pH 4-8); for fluorescence changes of the Apo probe with pH: Apo (TPEN); for fluorescence changes of the Apo probe with pH / pH range in which fluorescence of the Zn-bound probe is stable: buffers at various pHs
# Procedure: as §1
# [4] = remeasured, same as originally reported, state not specified
Compound,Brightness (ε*Φ/1000) ([1]; Apo),λAbs (max) ([1]; Apo (TPEN)) [nm],Extinction Coefficient (ε) ([1]; Apo),Quantum Yield (Φ) ([1]; Apo),λEm (max) ([1]; Apo) [nm],Brightness (ε*Φ/1000) ([1]; Zn-bound),Extinction Coefficient (ε) ([1]; Zn-bound),Quantum Yield (Φ) ([1]; Zn-bound),λAbs (max) ([1]; Zn-bound) [nm],λEm (max) ([1]; Zn-bound) [nm],fluorescence turn-on in the presence of zinc [1],turn-on ratio / increase in brightness in response to zinc [1],Kd [2] [nM],pH-dependent fluorescence changes [3],fluorescence changes of the Apo probe with pH [3],pH range in which fluorescence of the Zn-bound probe is stable [3],affinity for zinc (in words) [2],also measured
"COc1ccc2n1[B-](F)(F)[N+]1=C(N(CCN(Cc3ccccn3)Cc3ccccn3)Cc3ccccn3)C=CC1=C2c1c(C)cc(C)cc1C [ZincBY-1, reference compound]",5.21(72) M^−1cm^−1,529,2.42(33) × 10^4 M^−1cm^−1,0.215(5),559,26.97(2.30) M^−1cm^−1,4.14(33) × 10^4 M^−1cm^−1,0.651(18) and 0.651(2),532,543,5.2,ca. 5 fold,3.72 ± 0.87,neither the holo or apo forms of ZincBY-1 and ZincBY-4 show significant changes in fluorescence,,,,"higher brightness on remeasurement compared to the originally reported values ([1]; both apo and holo states): 10 fold; absorption wavelength [1, 4]: 533 nm; emission wavelength [1, 4]: 543 nm"
"Cc1cc(C)c(C2=C3C=CC(OCCN=[N+]=[N-])=[N+]3[B-](F)(F)n3c2ccc3N(CCN(Cc2ccccn2)Cc2ccccn2)Cc2ccccn2)c(C)c1 [ZincBY-2, N1-(7-(2-azidoethoxy)-5,5-difluoro-10-mesityl-5H-4λ4,5λ4-dipyrrolo[1,2-c:2′,1′-f][1,3,2]diazaborinin-3-yl)-N1,N2,N2-tris(pyridin-2-ylmethyl)ethane-1,2-diamine]",2.35(58) M^−1cm^−1,532,1.42(35) × 10^4 M^−1cm^−1,0.164(7),566,13.58(1.93) M^−1cm^−1,2.57(35) × 10^4 M^−1cm^−1,0.529(22),532,552,,,18.1 ± 2.6,,largely unaffected by changes in pH,4.5-8.0 pH,,affinity for zinc weaker than that of ZincBY-1 ([2]; relative to ZincBY-1): five-fold weaker
"Cc1cc(C)c(C2=C3C=CC(OCCN)=[N+]3[B-](F)(F)n3c2ccc3N(CCN(Cc2ccccn2)Cc2ccccn2)Cc2ccccn2)c(C)c1 [ZincBY-3, N1-(7-(2-aminoethoxy)-5,5-difluoro-10-mesityl-5H-4λ4,5λ4-dipyrrolo[1,2-c:2′,1′-f][1,3,2]diazaborinin-3-yl)-N1,N2,N2-tris(pyridin-2-ylmethyl)ethane-1,2-diamine]",1.85(8) M^−1cm^−1,571,1.16(4) × 10^4 M^−1cm^−1,0.158(3),585,12.42(36) M^−1cm^−1,2.21(5) × 10^4 M^−1cm^−1,0.562(11),482,537,,,0.0977 ± 0.0261,,largely unaffected by changes in pH,4-8 pH,sub-nanomolar,affinity for zinc higher than that of ZincBY-1 ([2]; relative to ZincBY-1): 38 fold
"CC(=O)NCCOc1ccc2n1[B-](F)(F)[N+]1=C(N(CCN(Cc3ccccn3)Cc3ccccn3)Cc3ccccn3)C=CC1=C2c1c(C)cc(C)cc1C [ZincBY-4, N-(2-((7-((2-(bis(pyridin-2-ylmethyl)amino)ethyl)(pyridin-2-ylmethyl)amino)-5,5-difluoro-10-mesityl-5H-5λ4,6λ4-dipyrrolo[1,2-c:2′,1′-f][1,3,2]diazaborinin-3-yl)oxy)ethyl)acetamide]",1.44(7) M^−1cm^−1,572,0.88(4) × 10^4 M^−1cm^−1,,585,12.15(34) M^−1cm^−1,2.12(4) × 10^4 M^−1cm^−1,,482,537,8.4,8 fold,0.229 ± 0.0184,neither the holo or apo forms of ZincBY-1 and ZincBY-4 show significant changes in fluorescence,largely unaffected by changes in pH,4-8 pH,sub-nanomolar,absorption peaks ([1]; apo form): 482 nm and 570 nm; quantum yield lower compared to ZincBY-1 ([1]; apo form): 5%; quantum yield lower compared to ZincBY-1 ([1]; holo form): 10%
